The test system of one test is E. coli ATCC 25922. In words: Minimum inhibitory concentration (MIC), E. coli. The format is cell-based, Escherichia coli. The method, then: (§1) Bacterial Strains. The Streptococcus pyogenes strains, Klebsiella pneumoniae, Escherichia coli, Staphylococcus aureus, Enterococcus faecalis used in the antibacterial activity studies ATCC 14289, 49399, 13883, 25922, 13709, 29212, respectively, are obtained from the American Type Culture Collection, Rockville, Md. The strain E. coli imp— is a mutant strain of wild type E. coli with increased outer membrane permeability and was grown in LB broth at 37 °C. S. pyogenes strain is grown in Todd-Hewitt broth. S. aureus is grown in trypticase soy broth, E. faecalis in Todd-Hewitt broth, wild type E. coli and K. pneumoniae, in nutrient broth.
(§2) Determination of Minimum Inhibitory Concentrations (MICs). The assays were carried out in […] volume in duplicate in 96-well clear flat-bottom plates. The bacterial suspension from an overnight culture growth in appropriate medium was added to a solution of test compound in 4% DMSO in water. Final bacterial inoculum was approximately 10^5-10^6 CFU/well. The percent growth of the bacteria in test wells relative to that observed for a well containing no compound was determined by measuring absorbance at 595 nm (A595) after 24 h. […] Both ampicillin and tetracycline is used as antibiotic-positive controls in each screening assay for S. pyogenes, E. coli imp-, E. coli, S. aureus, E. faecalis, K pneumoniae and P. vulgaris. Ciprofloxacin is used as an antibiotic positive control in each screening assay for P. aeruginosa.

The subject of another test is S. aureus ATCC 13709. The test can be described thus: Minimum inhibitory concentration (MIC), S. aureus. The format is cell-based, Staphylococcus aureus. As to the method: as §1, §2
Test [1] has as its system E. coli S30 bacterial extract (protein synthesis). The test is classed as biochemical. Conditions: versus 12. The method, then:
Coupled Bacterial Transcription/Translation Assay. The DNA template, pBestLuc™ (Promega), is a plasmid containing a reporter gene for firefly luciferase fused to a strong tac promoter and ribosome binding site. Messenger RNA from 1 μg pBestLuc was transcribed and translated in E. coli S30 bacterial extract in the presence or absence of test compound. Compounds were tested in a black 96 well microtiter plate with an assay volume of 35 μL. Each test well contained: 5 μL test compound, 13 μL S30 premix (Promega), 4 μL 10× complete amino acid mix (1 mM each), 5 μL E. coli S30 extract and 8 μL of […] pBestLuc™. The transcription/translation reaction was incubated for 35 minutes at 37° C. followed by detection of functional luciferase with the addition of 30 μL LucLite™ (Packard). Light output was quantitated on a Packard TopCount.

Setting [2] is: Escherichia coli, ATCC25922, 24 h, read-out: MIC (E. coli).
[3] abbreviates: Staphylococcus aureus, ATCC13709, 24 h, read-out: MIC (S. aureus).

Structures are written as SMILES. In brackets after ≈: the same amount, converted by molar mass. Read-outs that look alike come from different tables or passages of the source. A value given as a limit tells only on which side of the number the result lay.

With `CC(=O)NCC1CN(c2ccc(N3CCOCC3)c(F)c2)C(=O)O1` (centres unmarked), the MIC is 2 to 3 mM (≈ 675 to 1010 µg/mL) in the test with E. coli ATCC 25922 (Escherichia coli, ATCC25922; alone (no serum); read-out: MIC (E. coli) alone); 3 to 6 mM (≈ 1010 to 2020 µg/mL) in the test with E. coli ATCC 25922 (Escherichia coli, ATCC25922; with serum; read-out: MIC (E. coli) +serum); 2 mM (≈ 675 µg/mL) in the test on S. aureus ATCC 13709 (Staphylococcus aureus, ATCC13709; alone (no serum); read-out: MIC (S. aureus) alone); 2 to 3 mM (≈ 675 to 1010 µg/mL) in the test on S. aureus ATCC 13709 (Staphylococcus aureus, ATCC13709; with serum; read-out: MIC (S. aureus) +serum).
For the compound `CN(C)CCCOc1ccc(C(NC(=O)c2ccc(-c3cccc(NC(=O)c4ccc(-c5cccc(F)c5)cc4)c3)o2)C(=O)N2CCNCC2)cc1` (centres unmarked), the minimal inhibitory concentration (MIC) in the test with E. coli ATCC 25922 (setting [2]) fell in the range of 6 to 13 mM (≈ 4220 to 9150 µg/mL); with S. aureus ATCC 13709 (setting [3]) it was 3 to 6 mM (≈ 2110 to 4220 µg/mL).
Take `CC(=O)c1ccccc1-c1ccc(C(=O)Nc2cccc(-c3ccc(C(=O)NC(C(=O)N4CCNCC4)c4ccc(OCCCN(C)C)cc4)o3)c2)cc1` (centres unmarked): the MIC in the test on E. coli ATCC 25922 (setting [2]) was more than 100 mM; in the test on S. aureus ATCC 13709 (setting [3]) it was 6 to 13 mM (≈ 4370 to 9460 µg/mL).
As for `CN(C)CCCOc1ccc(C(NC(=O)c2ccc(-c3cccc(NC(=O)c4ccc5[nH]c(=O)c(=O)[nH]c5c4)c3)o2)C(N)=O)cc1` (centres unmarked) [Compound 21], the “fold less potent than 12” value in test [1] is approximately 3 fold.
In the case of `CCc1ccc(-c2ccc(C(=O)Nc3cccc(-c4ccc(C(=O)NC(C(=O)N5CCNCC5)c5ccc(OCCCN(C)C)cc5)o4)c3)cc2)cc1` (centres unmarked) [Compound 35], the MIC in the test with E. coli ATCC 25922 (setting [2]) was 50 to 100 mM (≈ 35700 to 71400 µg/mL); in the test on S. aureus ATCC 13709 (setting [3]), 6 to 13 mM (≈ 4280 to 9280 µg/mL).
Turning to `CCCc1ccc(-c2ccc(C(=O)Nc3cccc(-c4ccc(C(=O)NC(C(=O)N5CCNCC5)c5ccc(OCCCN(C)C)cc5)o4)c3)cc2)cc1` (centres unmarked) [Compound 36], the MIC in the test on E. coli ATCC 25922 (setting [2]) is more than 100 mM; in the test on S. aureus ATCC 13709 (setting [3]), 13 to 25 mM (≈ 9460 to 18200 µg/mL).
With `CN(C)CCCOc1ccc(C(NC(=O)c2ccc(-c3cccc(NC(=O)c4ccc(-c5ccc(C(C)(C)C)cc5)cc4)c3)o2)C(=O)N2CCNCC2)cc1` (centres unmarked) [Compound 37], the MIC with E. coli ATCC 25922 (setting [2]) and in the test with S. aureus ATCC 13709 (setting [3]) was more than 100 mM each time.
Regarding `Cc1ccccc1-c1ccc(C(=O)Nc2cccc(-c3ccc(C(=O)NC(C(=O)N4CCNCC4)c4ccc(OCCCN(C)C)cc4)o3)c2)cc1` (centres unmarked) [Compound 38], the minimum inhibitory concentration (MIC) with E. coli ATCC 25922 (setting [2]) and with S. aureus ATCC 13709 (setting [3]) was 3 to 6 mM (≈ 2100 to 4200 µg/mL) throughout.
On to `Cc1cccc(-c2ccc(C(=O)Nc3cccc(-c4ccc(C(=O)NC(C(=O)N5CCNCC5)c5ccc(OCCCN(C)C)cc5)o4)c3)cc2)c1` (centres unmarked) [Compound 39], for which the MIC in the test with E. coli ATCC 25922 (setting [2]) and in the test on S. aureus ATCC 13709 (setting [3]) was 13 to 25 mM (≈ 9100 to 17500 µg/mL) each time.
Regarding `CCc1ccccc1-c1ccc(C(=O)Nc2cccc(-c3ccc(C(=O)NC(C(=O)N4CCNCC4)c4ccc(OCCCN(C)C)cc4)o3)c2)cc1` (centres unmarked) [Compound 41], the figures for the MIC in the test on E. coli ATCC 25922 (setting [2]) and with S. aureus ATCC 13709 (setting [3]) were 13 to 25 mM (≈ 9280 to 17800 µg/mL) and 3 to 6 mM (≈ 2140 to 4280 µg/mL), respectively.
With `Cc1cccc(-c2ccc(C(=O)Nc3cccc(-c4ccc(C(=O)NC(C(=O)N5CCNCC5)c5ccc(OCCCN(C)C)cc5)o4)c3)cc2)c1C` (centres unmarked) [Compound 42], the MIC in the test on E. coli ATCC 25922 (Escherichia coli, ATCC25922, 24 h; read-out: MIC (E. coli)) fell in the range of 13 to 25 mM (≈ 9280 to 17800 µg/mL); in the test on S. aureus ATCC 13709 (Staphylococcus aureus, ATCC13709, 24 h; read-out: MIC (S. aureus)), 3 to 6 mM (≈ 2140 to 4280 µg/mL).
Consider `Cc1ccc(C)c(-c2ccc(C(=O)Nc3cccc(-c4ccc(C(=O)NC(C(=O)N5CCNCC5)c5ccc(OCCCN(C)C)cc5)o4)c3)cc2)c1` (centres unmarked) [Compound 43], for which the results for the MIC with E. coli ATCC 25922 (setting [2]) and in the test on S. aureus ATCC 13709 (setting [3]) were 25 to 50 mM (≈ 17800 to 35700 µg/mL) and 13 to 25 mM (≈ 9280 to 17800 µg/mL), respectively.
As to `Cc1cccc(C)c1-c1ccc(C(=O)Nc2cccc(-c3ccc(C(=O)NC(C(=O)N4CCNCC4)c4ccc(OCCCN(C)C)cc4)o3)c2)cc1` (centres unmarked) [Compound 44], the values for the MIC with E. coli ATCC 25922 (setting [2]) and in the test on S. aureus ATCC 13709 (setting [3]) were 25 to 50 mM (≈ 17800 to 35700 µg/mL) and 13 to 25 mM (≈ 9280 to 17800 µg/mL), respectively.
Turning to `Cc1cc(C)c(-c2ccc(C(=O)Nc3cccc(-c4ccc(C(=O)NC(C(=O)N5CCNCC5)c5ccc(OCCCN(C)C)cc5)o4)c3)cc2)c(C)c1` (centres unmarked) [Compound 45], the MIC lay in the range of 50 to 100 mM (≈ 36400 to 72800 µg/mL) in the test on E. coli ATCC 25922 (setting [2]) and 13 to 25 mM (≈ 9460 to 18200 µg/mL) in the test with S. aureus ATCC 13709 (setting [3]).
Taken in the same sequence, the figures for `CN(C)CCCOc1ccc(C(NC(=O)c2ccc(-c3cccc(NC(=O)c4ccc(-c5ccccc5Cl)cc4)c3)o2)C(=O)N2CCNCC2)cc1` (centres unmarked) [Compound 47] were 6 to 13 mM (≈ 4320 to 9360 µg/mL) and 25 to 50 mM (≈ 18000 to 36000 µg/mL).
`CN(C)CCCOc1ccc(C(NC(=O)c2ccc(-c3cccc(NC(=O)c4ccc(-c5cccc(Cl)c5)cc4)c3)o2)C(=O)N2CCNCC2)cc1` (centres unmarked) [Compound 48]: the minimal inhibitory concentration (MIC) in the test with E. coli ATCC 25922 (setting [2]) and with S. aureus ATCC 13709 (setting [3]) was 13 to 25 mM (≈ 9360 to 18000 µg/mL) each time.
In the case of `CN(C)CCCOc1ccc(C(NC(=O)c2ccc(-c3cccc(NC(=O)c4ccc(-c5cc(Cl)cc(Cl)c5)cc4)c3)o2)C(=O)N2CCNCC2)cc1` (centres unmarked) [Compound 49], the MIC with E. coli ATCC 25922 (setting [2]) and with S. aureus ATCC 13709 (setting [3]) was more than 100 mM in each case.

A word on the MIC: it is the least concentration at which growth counts as inhibited.

Values taken from US7432264B2, “Antimicrobial biaryl compounds” (Isis Pharmaceuticals, Inc., priority 2000, dated 2008).
